Data published in patent US20090076006A1, “HSP90 INHIBITORS CONTAINING A ZINC BINDING MOIETY” (priority 2007, published 2009).

Legend:
HSP90 = target: T1, HSP90 (Homo sapiens, UniProt P07900); assay: HSP90 assay (chaperone luciferase refolding / competition binding fluorescence polarization); conditions: Table B does not say which of the two described
T1 construct: purchased Assay Design SPP-776F
Procedure: (a) An In Vitro Assay which Determines the Ability of a Test Compound to Inhibit Hsp90 Chaperone Activity.
The Hsp90 chaperone assay was performed to measure the ability of HSP90 protein to refold the heat-denatured luciferase protein. HSP90 was first incubated with different concentrations of test compounds in denaturation buffer (25 mM Tris, pH7.5, 8 mM MgSO4, 0.01% bovine gamma globulin and 10% glycerol) at room temperature for 30 min. Luciferase protein was added to denaturation mix and incubated at 50° C. for 8 min. The final concentration of HSP90 and luciferase in denaturation mixture were 0.375 μM and 0.125 μM respectively. A 5 μl sample of the denatured mix was diluted into 25 μl of renaturation buffer (25 mM Tris, pH7.5, 8 mM MgSO4, 0.01% bovine gamma globulin and 10% glycerol, 0.5 mM ATP, 2 mM DTT, 5 mM KCl, 0.3 μM HSP70 and 0.15 μM HSP40). The renaturation reaction was incubated at room temperature for 150 min, followed by dilution of 10 μl of the renatured sample into 90 μl of luciferin reagent (Luclite, PerkinElmer Life Science). The mixture was incubated at dark for 5 min before reading the luminescence signal on a TopCount plate reader (PerkinElmer Life Science).
(b) HSP90 Competition Binding (Fluorescence Polarization) Assay.
A fluorescein isothiocyanate (FITC) labeled GM was purchase from InvivoGen (ant-fgl-1). The interaction between HSP90 and labeled GM forms the basis for the fluorescence polarization assay. A free and fast-tumbling FITC labeled GM emits random light with respect to the plane of polarization plane of excited light, resulting in a lower polarization degree (mP) value. When GM is bound to HSP90, the complex tumble slower and the emitted light is polarized, resulting in a higher mP value. This competition binding assay was performed in 96-well plate and with each assay contained 10 and 50 nM of labeled GM and purified HSP90 protein (Assay Design, SPP-776F) respectively. The assay buffer contained 20 mM HEPES (pH 7.3), 50 mM KCl, 1 mM DTT, 50 mM MgCl2, 20 mM Na2MoO4, 0.01% NP40 with 0.1 mg/ml bovine gamma-globulin. Compounds are diluted in DMSO and added to the final assay before labeled GM with concentration range from 20 uM to 2 nM. mP value was determined by BioTek Synergy II with background subtraction after 24 hours of incubation at 4° C.

[1] = tested on: HDAC (HeLa nuclear extract); assay: HDAC fluorimetric assay (inhibition of HDAC enzymatic activity); format: biochemical; conditions: HDAC fluorimetric assay kit
Procedure: (c) An In Vitro Assay which Determines the Ability of a Test Compound to Inhibit HDAC Enzymatic Activity.
HDAC inhibitors were screened using an HDAC fluorimetric assay kit (AK-500, Biomol, Plymouth Meeting, Pa.). Test compounds were dissolved in dimethylsulphoxide (DMSO) to give a 20 mM working stock concentration. Fluorescence was measured on a WALLAC Victor 2 plate reader and reported as relative fluorescence units (RFU). Data were plotted using GraphPad Prism (v4.0a) and IC50's calculated using a sigmoidal dose response curve fitting algorithm. Each assay was setup as follows: Defrosted all kit components and kept on ice until use. Diluted HeLa nuclear extract 1:29 in Assay Buffer (50 mM Tris/Cl, pH 8.0, 137 mM NaCl, 2.7 mM KCl, 1 mM MgCl2). Prepared dilutions of Trichostatin A (TSA, positive control) and tested compounds in assay buffer (5× of final concentration). Diluted Fluor de Lys™ Substrate in assay buffer to 100 uM (50 fold=2× final). Diluted Fluor de Lys™ developer concentrate 20-fold (e.g. 50 μl plus 950 μl Assay Buffer) in cold assay buffer. Second, diluted the 0.2 mM Trichostatin A 100-fold in the 1× Developer (e.g. 10 μl in 1 ml; final Trichostatin A concentration in the 1× Developer=2 μM; final concentration after addition to HDAC/Substrate reaction=1 μM). Added Assay buffer, diluted trichostatin A or test inhibitor to appropriate wells of the microtiter plate. Added diluted HeLa extract or other HDAC sample to all wells except for negative controls. Allowed diluted Fluor de Lys™ Substrate and the samples in the microtiter plate to equilibrate to assay temperature (e.g. 25 or 37° C. Initiated HDAC reactions by adding diluted substrate (25 μl) to each well and mixing thoroughly. Allowed HDAC reactions to proceed for 1 hour and then stopped them by addition of Fluor de Lys™ Developer (50 μl). Incubated plate at room temperature (25° C.) for 10-15 min. Read samples in a microtiter-plate reading fluorimeter capable of excitation at a wavelength in the range 350-380 nm and detection of emitted light in the range 440-460 nm.

Row | Compound | melting point [°C] | IC50 (HSP90) [nM] | IC50 [1] [nM]
1 | CC(C)c1cc(-c2onc(C(=O)NCCCCCC(=O)NO)c2-c2ccc(CN3CCOCC3)cc2)c(O)cc1O [Compound 27, 5-(2,4-Dihydroxy-5-isopropylphenyl)-N-(6-(hydroxyamino)-6-oxohexyl)-4-(4-(morpholinomethyl)phenyl)isoxazole-3-carboxamide] | 164 to 166 | ≤ 100 | 100 to 1000
2 | CC(C)c1cc(-c2onc(C(=O)NCCCCCCC(=O)NO)c2-c2ccc(CN3CCOCC3)cc2)c(O)cc1O [Compound 28, 5-(2,4-Dihydroxy-5-isopropylphenyl)-N-(7-(hydroxyamino)-7-oxoheptyl)-4-(4-(morpholinomethyl)phenyl)isoxazole-3-carboxamide] | 109 to 111 | ≤ 100 | ≤ 100
3 | CC(C)c1cc(-c2onc(C(=O)NCCCCCCCC(=O)NO)c2-c2ccc(CN3CCOCC3)cc2)c(O)cc1O [Compound 29, 5-(2,4-Dihydroxy-5-isopropylphenyl)-N-(8-(hydroxyamino)-8-oxooctyl)-4-(4-(morpholinomethyl)phenyl)isoxazole-3-carboxamide] | 117 to 119 | ≤ 100 | 100 to 1000
